According to patent publication US9999656B2, “Treatment of short bowel syndrome patients with colon-in-continuity” (Shire-NPS Pharmaceuticals, Inc., priority 2004, dated 2018):

Experiments:
[1] = test system: patients with short bowel syndrome (SBS); experiment: 72-hour nutrient balance studies in open-label pilot study of teduglutide; format: in vivo, human
Experimental: This was an open-label, pilot study to determine the safety and effect of teduglutide in patients with short bowel syndrome (SBS). The patient's history was reviewed and a physical examination performed to determine eligibility before inclusion in the study. Estimated residual small intestine and colon lengths were determined by reviewing operative reports and available radiographic studies. Eligible patients were admitted as inpatients to hospital wards or General Clinic Research Centers (GCRC) on three separate occasions, 18 days apart, for the last four days and three nights of the baseline period and at the end of the treatment and follow-up periods. Treatment consisted of recombinant teduglutide (supplied by NPS Allelix, Mississauga, ON, Canada) formulated as a lyophilized powder with L-histidine, mannitol, and monobasic and dibasic sodium phosphate (Lot 8502901). Water was added to reconstitute the drug for administration by subcutaneous (s.c.) injections in the abdomen or thigh. Ten SBS patients with jejunostomy received 0.03 mg/kg/d, 0.10 mg/kg/d or 0.15 mg/kg/d once daily for 21 days. Five SBS patients with ≥50% colon-in-continuity received teduglutide 0.10 mg/kg/d once daily for 21 days.
The 72-hour nutrient balance studies were completed with each patient eating their usual diet, calculated from a seven-day food diary completed by the patient during the screening period. It was intended that patients eat the same quantity and quality of food and beverages during each admission. During the 72-hour balance periods, all oral intake (duplicate meals and beverages and declined food), fecal/stomal output, and urine were collected and weighed. All stool samples were refrigerated during the collection period. Stools and diets were separately homogenized and analyzed for energy content (by bomb calorimetry), nitrogen (by the macro-Kjeldahl's method), fat (by the gravimetric technique), and sodium and potassium (by atomic absorption).
Using the SAS (Version 8.2; SAS Institute, Cary, N.C.) statistical program, a Student's paired t test was employed that compared treatment to baseline values, and follow-up to baseline values. No comparisons were made between patients on different doses or with different anatomy due to the limited number of patients in the study. Data are expressed as mean±SD. A value of p<0.05 was considered significant.

[2] = test system: patients with short bowel syndrome (SBS); experiment: Safety monitoring (adverse events, laboratory, vital signs, ECGs, antibodies)
Source text: During each inpatient period, patients underwent 72-hour nutrient balance and D-Xylose absorption studies, and a proximal or distal endoscopy to ascertain the condition of the intestinal mucosa and obtain biopsy samples. In jejunostomy patients, biopsies were obtained through the jejunostomy stoma or by upper gastrointestinal endoscopy. In patients with colon-in-continuity, colo-rectal biopsies were obtained. Teduglutide treatment began on Day 1 (immediately after the baseline period) and continued once-daily for 21 days. […] Patients were monitored for safety (adverse events, physical exams, vital signs, ECGs, laboratory results, and injection site examinations) during the inpatient periods and during outpatient visits on days 7 and 14.

[3] = test system: intestinal mucosa of SBS patients; experiment: Morphological analysis of intestinal biopsies (villus height, crypt depth, mitotic index); format: in vivo, human
Experimental: Endoscopic examinations were performed in each subject at the completion of baseline, treatment and follow-up phases. All tissue samples for measurement of villus height and crypt depth were prepared and analyzed in a blinded fashion by the same pathologist. Villus height and crypt depth were measured using light microscopy (eyepiece micrometer) as the mean of ten well-oriented villi and crypts. The number of mitotic figures per 100 crypt epithelial cells was calculated.

[4] = Body weight following teduglutide treatment; format: in vivo, human; conditions: not significant (p=0.120)
[5] = Group 4 SBS high dietary compliance, N=10, 21 days, Days 18-21 vs baseline
[6] = Group 4 SBS high dietary compliance, N=10, follow-up Days 39-42 vs baseline
[7] = Group 4 SBS high dietary compliance, of N=10
[8] = jejunum / small intestine biopsies, Group 2 end-jejunostomy

Structure (SMILES): CC[C@H](C)[C@H](NC(=O)[C@H](Cc1ccccc1)NC(=O)[C@H](CC(=O)O)NC(=O)[C@H](CCCNC(=N)N)NC(=O)[C@H](C)NC(=O)[C@H](C)NC(=O)[C@H](CC(C)C)NC(=O)[C@H](CC(N)=O)NC(=O)[C@H](CC(=O)O)NC(=O)[C@H](CC(C)C)NC(=O)[C@@H](NC(=O)[C@@H](NC(=O)[C@H](CC(N)=O)NC(=O)[C@H](CCSC)NC(=O)[C@H](CCC(=O)O)NC(=O)[C@H](CC(=O)O)NC(=O)[C@H](CO)NC(=O)[C@H](Cc1ccccc1)NC(=O)[C@H](CO)NC(=O)CNC(=O)[C@H](CC(=O)O)NC(=O)CNC(=O)[C@@H](N)Cc1c[nH]cn1)[C@@H](C)O)[C@@H](C)CC)C(=O)N[C@@H](CC(N)=O)C(=O)N[C@@H](Cc1c[nH]c2ccccc12)C(=O)N[C@@H](CC(C)C)C(=O)N[C@H](C(=O)N[C@@H](CCC(N)=O)C(=O)N[C@H](C(=O)N[C@@H](CCCCN)C(=O)N[C@H](C(=O)N[C@H](C(=O)N[C@@H](CC(=O)O)C(=O)O)[C@@H](C)O)[C@@H](C)CC)[C@@H](C)O)[C@@H](C)CC [teduglutide, [Gly2]hGLP-2]
- decrease in fecal wet weight compared to baseline ([1]; Group 3 SBS ≥50% colon-in-continuity, 21-day treatment, stated as decrease): 822 ± 341 g/day
- Energy Absorption (% of intake), Effect of Treatment (Treatment minus Baseline) mean ± SD [1, 5]: 8±11 % of intake
- Energy Absorption, Effect of Treatment (Treatment minus Baseline) mean ± SD [1, 5]: 963 ± 1290 kJ/day
- Energy Fecal, Effect of Treatment (Treatment minus Baseline) mean ± SD [1, 5]: -1060 ± 1083 kJ/day
- Urine Wet Weight, Effect of Treatment (Treatment minus Baseline) mean ± SD [1, 5]: 725 ± 394 g/day
- Wet Weight Absorption (% of intake), Effect of Treatment (Treatment minus Baseline) mean ± SD [1, 5]: 23 ± 16 % of intake
- Wet Weight Absorption, Effect of Treatment (Treatment minus Baseline) mean ± SD [1, 5]: 746 ± 436 g/day
- Wet Weight Fecal, Effect of Treatment (Treatment minus Baseline) mean ± SD [1, 5]: -769 ± 447 g/day
- Energy Absorption (% of intake), Effect at Follow up (Follow up minus Baseline) mean ± SD [1, 6]: 3 ± 16 % of intake
- Energy Absorption, Effect at Follow up (Follow up minus Baseline) mean ± SD [1, 6]: 452 ± 1211 kJ/day
- Energy Fecal, Effect at Follow up (Follow up minus Baseline) mean ± SD [1, 6]: -98 ± 1674 kJ/day
- Urine Wet Weight, Effect at Follow up (Follow up minus Baseline) mean ± SD [1, 6]: 30 ± 285 g/day
- Wet Weight Absorption (% of intake), Effect at Follow up (Follow up minus Baseline) mean ± SD [1, 6]: 0 ± 27 % of intake
- Wet Weight Absorption, Effect at Follow up (Follow up minus Baseline) mean ± SD [1, 6]: 24 ± 576 g/day
- Wet Weight Fecal, Effect at Follow up (Follow up minus Baseline) mean ± SD [1, 6]: 93 ± 500 g/day
- Energy Absorption (% of intake), Patients With Beneficial Effect [1, 7]: 9
- Energy Absorption (kJ/day), Patients With Beneficial Effect [1, 7]: 9
- Energy Fecal, Patients With Beneficial Effect [1, 7]: 8
- Urine Wet Weight, Patients With Beneficial Effect [1, 7]: 10
- Wet Weight Absorption (% of intake), Patients With Beneficial Effect [1, 7]: 9
- Wet Weight Absorption (g/day), Patients With Beneficial Effect [1, 7]: 9
- Wet Weight Fecal, Patients With Beneficial Effect [1, 7]: 9
- decrease in fecal energy excretion compared to baseline ([1]; Group 4 SBS high dietary compliance, stated as reduction): 1060 ± 1083 kJ/day
- improved wet weight absorption ([1]; SBS patient population): 0.75 L
- effect on absolute energy absorption relative to native GLP-2 ([1]; at the given doses and treatment periods): 1.5 to 4 fold
- reversal of changes at follow-up ([1]; follow-up after cessation of dosing): Most changes in intestinal absorption and histology related to teduglutide treatment had reversed at follow-up
- effects on wet weight absorption relative to native GLP-2 pilot study ([1]; in vivo): almost two-fold
- number of SBS patients in whom absolute wet weight absorption increased as a percent of intake ([1]; of 15 SBS patients): 13
- number of SBS patients with decreases in energy excretion ([1]; of 15 SBS patients): 12
- number of SBS patients with increased absolute wet weight absorption compared to baseline ([1]; of 15 SBS patients): 15
- number of SBS patients with increased urine weight ([1]; of 15 SBS patients): 13
- antibodies to teduglutide ([2]; SBS patients, 21 days dosing): No antibodies to teduglutide were detected
- deaths and withdrawals due to adverse events ([2]; all patients): no deaths and no withdrawals due to adverse events
- injection site reactions ([2]; in vivo): Three patients had minor injection site reactions
- laboratory values ([2]; in vivo): No clinically significant abnormal laboratory values
- most common AEs ([2]; in vivo): edema of the lower limbs, and localized swelling of the jejunostomy nipple
- relation of serious AEs (catheter-related infection or complication, two patients) to drug ([2]; in vivo): None of these were judged to be related to teduglutide
- vital signs or ECGs ([2]; in vivo): No safety concerns were raised
- sets of colonic biopsies with increased crypt depth ([3]; Group 3 colon-in-continuity): four of five
- increase in mitotic index (colonic biopsies) ([3]; colonic biopsies, Group 3 colon-in-continuity, not significant (p=0.170)): 76±112%
- mean increase in colonic crypt depth ([3]; colonic biopsies, Group 3 colon-in-continuity, not significant (p=0.330)): 13±22%
- increase in crypt depth [3, 8]: 22±18%
- increase in mitotic index [3, 8]: 115±108%
- increase in villus height [3, 8]: 38±45%
- number of patients with significant histological changes in the jejunum ([3]; of the 8 Group 2 patients who were biopsied): 7
- increase in body weight following teduglutide treatment [4]: 0.9 ± 2.1 kg
